From patent publication US9643953B2, “Substituted benzylpyrazoles” (Bayer Intellectual Property GmbH, priority 2011, dated 2017) come the findings set out here.

One assay deals with HeLa cell line. Nature of the assay: Proliferation assay (HeLa cell line).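 Also: crystal violet staining of cell number, absorbance read at 595 nm, compounds tested at 0.001–10 µM, zero-point plate taken as 0% and untreated cells as 100%, four-parameter fit.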 The settings on record: Homo sapiens, HeLa, 96 h.
Assay [1] addresses T1, catalytic domain of human Bub1 (amino acids 704-1085) (Homo sapiens, UniProt O43683).
T1 construct: catalytic domain of human Bub1 (amino acids 704-1085); His6 (N); made in house; host or cells: Hi5 insect cells
Nature of the assay: Bub1 kinase assay (TR-FRET). In kind it is biochemical. The settings on record: ATP 10 μM, peptide substrate 1 μM, 60 min at 22° C. As for the experimental part:
To this end, 100-fold concentrated compound solutions (in DMSO) were previously prepared by serial dilution (1:3.4) of 2 mM stocks in a clear low volume 384-well source microtiter plate (Greiner Bio-One, Frickenhausen, Germany), from which 50 nl of compounds were transferred into a black low volume test microtiter plate from the same supplier. […] The resulting mixture (5 μl final volume) was incubated at 22° C. during 60 min., and the reaction was stopped by the addition of 5 μl of an aqueous EDTA-solution (50 mM EDTA, in 100 mM HEPES pH 7.5 and 0.2% (w/v) bovine serum albumin) which also contained the TR-FRET detection reagents (0.2 μM streptavidin-XL665 [Cisbio Bioassays, Codolet, France] and 1 nM anti-phosho-Serine antibody [Merck Millipore, cat. #35-001] and 0.4 nM LANCE EU-W1024 labeled anti-mouse IgG antibody [Perkin-Elmer, product no. AD0077, alternatively a Terbium-cryptate-labeled anti-mouse IgG antibody from Cisbio Bioassays can be used]). The stopped reaction mixture was further incubated 1 h at 22° C. in order to allow the formation of complexes between peptides and detection reagents. Subsequently, the amount of product was evaluated by measurement of the resonance energy transfer from the Eu-chelate-antibody complex recognizing the Phosphoserine residue to the streptavidin-XL665 bound to the biotin moiety of the peptide. […] IC50 values were calculated by fitting the normalized inhibition data to a 4-parameter logistic equation (Minimum, Maximum, IC50, Hill; Y=Max+(Min−Max)/(1+(X/IC50)Hill)).
For orientation: Time-resolved FRET reads energy transfer from a long-lived donor to a nearby acceptor.

Where [2] appears, read: TR-FRET, read-out: Biological Assay 1: Bub1 kinase assay median IC50.
[3] abbreviates: read-out: Biological Assay 2: Proliferation assay (HeLa cell line) median IC50.
Setting [4] is: Biological Assay 1: Bub1 kinase assay median IC50, TR-FRET.

Molecules are shown by their SMILES. Read-outs that look alike come from different tables or passages of the source. Some results are limits rather than exact numbers.

T1 sequence (O43683 704-1085): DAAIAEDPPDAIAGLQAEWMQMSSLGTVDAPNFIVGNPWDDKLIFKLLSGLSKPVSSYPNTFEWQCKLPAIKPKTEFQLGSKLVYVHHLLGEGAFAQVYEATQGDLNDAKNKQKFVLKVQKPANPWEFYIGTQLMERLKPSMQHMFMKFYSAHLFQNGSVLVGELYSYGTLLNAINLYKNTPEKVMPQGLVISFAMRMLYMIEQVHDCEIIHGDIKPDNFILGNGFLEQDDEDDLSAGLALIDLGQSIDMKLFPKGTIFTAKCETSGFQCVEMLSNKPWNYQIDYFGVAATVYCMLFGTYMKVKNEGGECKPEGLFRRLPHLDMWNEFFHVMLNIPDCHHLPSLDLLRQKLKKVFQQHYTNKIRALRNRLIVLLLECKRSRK
Method for HeLa cell line: Cultivated tumor cells (cells were ordered from ATCC, except HeLa-MaTu and HeLa-MaTu-ADR, which were ordered from EPO-GmbH, Berlin) were plated at a density of 1000 to 5000 cells/well, depending on the growth rate of the respective cell line, in a 96-well multititer plate in 200 μL of their respective growth medium supplemented 10% fetal calf serum. After 24 hours, the cells of one plate (zero-point plate) were stained with crystal violet (see below), while the medium of the other plates was replaced by fresh culture medium (200 μl), to which the test substances were added in various concentrations (0 μM, as well as in the range of 0.001-10 μM; the final concentration of the solvent dimethyl sulfoxide was 0.5%). The cells were incubated for 4 days in the presence of test substances. Cell proliferation was determined by staining the cells with crystal violet: the cells were fixed by adding 20 μl/measuring point of an 11% glutaric aldehyde solution for 15 minutes at room temperature. After three washing cycles of the fixed cells with water, the plates were dried at room temperature. The cells were stained by adding 100 μl/measuring point of a 0.1% crystal violet solution (pH 3.0). After three washing cycles of the stained cells with water, the plates were dried at room temperature. The dye was dissolved by adding 100 μl/measuring point of a 10% acetic acid solution. Absorption was determined by photometry at a wavelength of 595 nm. The change of cell number, in percent, was calculated by normalization of the measured values to the absorption values of the zero-point plate (=0%) and the absorption of the untreated (0 μm) cells (=100%). The IC50 values were determined by means of a 4 parameter fit.

Turning to `CCOc1cc(F)c(Cn2nc(-c3ncc(O)c(Nc4ccncc4)n3)c(C)c2C2CC2)c(Sc2ccccc2)c1` [Example 2-2-2, 2-{5-cyclopropyl-1-[4-ethoxy-2-fluoro-6-(phenylsulfanyl)benzyl]-4-methyl-1H-pyrazol-3-yl}-4-(pyridin-4-ylamino)pyrimidin-5-ol], the IC50 with HeLa cell line (read-out: Biological Assay 2: Proliferation assay (HeLa cell line) median IC50, HeLa cells, 4 days incubation, crystal violet staining) amounted to 4.97 µM; in assay [1] (setting [2]) it was 53.9 nM.

In the case of `CCOc1cc(F)c(Cn2nc(-c3ncc(OCC4(CO)COC4)c(Nc4ccncc4)n3)c(C)c2C2CC2)c(F)c1` [Example 2-3-2, {3-[({2-[5-cyclopropyl-1-(4-ethoxy-2,6-difluorobenzyl)-4-methyl-1H-pyrazol-3-yl]-4-(pyridin-4-ylamino)pyrimidin-5-yl}oxy)methyl]oxetan-3-yl}methanol], the IC50 is 6 µM with HeLa cell line (setting [3]) and 5.23 nM in assay [1] (setting [4]).

For the compound `COc1ccc(Cn2nc(-c3ncc(OC)c(Nc4ccncc4)n3)cc2C2CC2)cc1` [Example 2-1-8, 2-[5-cyclopropyl-1-(4-methoxybenzyl)-1H-pyrazol-3-yl]-5-methoxy-N-(pyridin-4-yl)pyrimidin-4-amine], the IC50 with HeLa cell line (setting [3]) is above 10 µM; in assay [1] (setting [2]), 73.8 nM.

For `COc1cnc(-c2nn(Cc3c(F)c(F)c(OCC(F)(F)F)c(F)c3F)c(C3CC3)c2C)nc1Nc1ccncc1` [Example 2-10-2, 2-{5-cyclopropyl-4-methyl-1-[2,3,5,6-tetrafluoro-4-(2,2,2-trifluoroethoxy)benzyl]-1H-pyrazol-3-yl}-5-methoxy-N-(pyridin-4-yl)pyrimidin-4-amine], the IC50 in the assay with HeLa cell line (setting [3]) was 5.28 µM; in assay [1] (setting [2]), 61.3 nM.

Consider `COc1cnc(-c2cc(OC)n(Cc3ccccc3F)n2)nc1Nc1ccncc1` [Example 2-1-3, 2-[1-(2-fluorobenzyl)-5-methoxy-1H-pyrazol-3-yl]-5-methoxy-N-(pyridin-4-yl)pyrimidin-4-amine], for which the IC50 in the assay on HeLa cell line (setting [3]) was above 10 µM; in assay [1] (setting [2]) it was 381 nM.

Regarding `CCOc1cc(F)c(Cn2nc(-c3ncc(OC)c(Nc4ccncc4C(N)=O)n3)c(C)c2C2CC2)c(F)c1` [Example 2-4-2, 4-({2-[5-cyclopropyl-1-(4-ethoxy-2,6-difluorobenzyl)-4-methyl-1H-pyrazol-3-yl]-5-methoxypyrimidin-4-yl}amino)nicotinamide], the IC50 was 3.23 µM with HeLa cell line (setting [3]) and 10.5 nM in assay [1] (setting [4]).

As for `C=Cc1cc(-c2ncc(OC)c(Nc3ccncc3)n2)nn1Cc1ccccc1` [Example 2-1-6, 2-(1-benzyl-5-ethenyl-1H-pyrazol-3-yl)-5-methoxy-N-(pyridin-4-yl)pyrimidin-4-amine], the IC50 in the assay on HeLa cell line (setting [3]) was above 10 µM; in assay [1] (setting [2]), 517 nM.

As for `COc1cnc(-c2nn(Cc3c(Cl)cccc3Cl)c(OC)c2C)nc1Nc1ccncc1` [Example 2-1-11, 2-[1-(2,6-dichlorobenzyl)-5-methoxy-4-methyl-1H-pyrazol-3-yl]-5-methoxy-N-(pyridin-4-yl)pyrimidin-4-amine], the figures for the IC50 (in the assay on HeLa cell line (setting [3]); in assay [1] (setting [2])) were 2.74 µM and 7.86 nM, respectively.

As to `CCOc1cc(F)c(Cn2nc(-c3ncc(OCCO)c(Nc4ccncc4)n3)c(C)c2C2CC2)c(F)c1` [Example 2-3-3, 2-({2-[5-cyclopropyl-1-(4-ethoxy-2,6-difluorobenzyl)-4-methyl-1H-pyrazol-3-yl]-4-(pyridin-4-ylamino)pyrimidin-5-yl}oxy)ethanol], the IC50 is 3.59 µM in the assay on HeLa cell line (setting [3]) and 7.86 nM in assay [1] (setting [4]).

In the case of `COc1cnc(-c2cc(OC)n(Cc3ccccc3F)n2)nc1Nc1ccncc1C(N)=O` [Example 2-4-1, 4-({2-[1-(2-fluorobenzyl)-5-methoxy-1H-pyrazol-3-yl]-5-methoxypyrimidin-4-yl}amino)pyridine-3-carboxamide], the IC50 in the assay with HeLa cell line (setting [3]) is above 10 µM; in assay [1] (setting [2]) it was 41.5 nM.

Take `CCOc1cc(F)c(Cn2nc(-c3ncc(OCCS(C)(=O)=O)c(Nc4ccncc4)n3)c(C)c2C2CC2)c(F)c1` [Example 2-9-1, 2-[5-cyclopropyl-1-(4-ethoxy-2,6-difluorobenzyl)-4-methyl-1H-pyrazol-3-yl]-5-[2-(methylsulfonyl)ethoxy]-N-(pyridin-4-yl)pyrimidin-4-amine]: the IC50 with HeLa cell line (setting [3]) was 5.17 µM; in assay [1] (setting [4]) it was 7.87 nM.
